# Literature values, collected in USRE42412E1, “Materials and methods for the treatment of gastroesophageal reflux disease” (ARYx Therapeutics, Inc., priority 2000, dated 2011).
# Columns and labels:
# [1] = between July 1993 and December 1999
# [2] = of a dose of cisapride
# 5HT4 receptors = 5HT4 receptors (Homo sapiens, UniProt Q13639)
# Sequence of 5HT4 receptors (Q13639 whole entry): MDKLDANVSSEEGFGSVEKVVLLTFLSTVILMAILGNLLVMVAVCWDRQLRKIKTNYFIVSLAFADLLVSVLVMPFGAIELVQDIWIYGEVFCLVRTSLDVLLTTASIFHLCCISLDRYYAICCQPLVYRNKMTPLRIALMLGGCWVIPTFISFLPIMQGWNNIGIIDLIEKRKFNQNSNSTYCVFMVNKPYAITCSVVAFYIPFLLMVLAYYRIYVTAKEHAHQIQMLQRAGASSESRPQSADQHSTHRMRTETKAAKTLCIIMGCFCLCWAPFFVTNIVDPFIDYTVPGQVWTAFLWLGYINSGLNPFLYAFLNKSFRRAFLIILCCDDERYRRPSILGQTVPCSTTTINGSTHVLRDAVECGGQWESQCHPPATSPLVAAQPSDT
compound,measurement,setting,value
COc1cc(N)c(Cl)cc1C(=O)NC1CCN(CCCOc2ccc(F)cc2)CC1OC (stereo not shown) [cisapride],deaths reported,[1],80
same,serious cardiac arrhythmias reportedly associated,"[1]; ventricular tachycardia, ventricular fibrillation, torsades de pointes, QT prolongation",at least 341
same,fraction of dose metabolized by oxidative N-dealkylation at the piperidine nitrogen or aromatic hydroxylation,[2],More than 90%
same,ligand potency at 5HT4 receptors,5HT4 receptors,potent ligand
